Data as given in ChEMBL document CHEMBL3758169, “4-Aminoindazolyl-dihydrofuro[3,4-d]pyrimidines as non-covalent inhibitors of mutant epidermal growth factor receptor tyrosine kinase” (Bioorg Med Chem Lett, 2016).

What was measured:
[1] = molecular target: Tyrosine-protein kinase receptor TYRO3 (Homo sapiens) (UniProt Q06418); test: Inhibition of RSE (unknown origin) at 100 nM
[2] = molecular target: Phosphatidylinositol 4-kinase alpha (Homo sapiens) (UniProt P42356); test: Inhibition of PI4Ka (unknown origin) at 100 nM
[3] = molecular target: Dual specificity protein kinase CLK2 (Homo sapiens) (UniProt P49760); test: Inhibition of CLK2 (unknown origin) at 100 nM
[4] = test system: Platelet-derived growth factor receptor alpha (Homo sapiens), P16234 [D842V]; test: Inhibition of PDGFRalpha D842V mutant (unknown origin) at 100 nM
[5] = molecular target: Dual specificity protein kinase CLK4 (Homo sapiens) (UniProt Q9HAZ1); test: Inhibition of CLK4 (unknown origin) at 100 nM
[6] = molecular target: Homeodomain-interacting protein kinase 3 (Homo sapiens) (UniProt Q9H422); test: Inhibition of HIPK3 (unknown origin) at 100 nM
[7] = molecular target: Megakaryocyte-associated tyrosine-protein kinase (Homo sapiens) (UniProt P42679); test: Inhibition of Hyl (unknown origin) at 100 nM
[8] = molecular target: Angiopoietin-1 receptor (Homo sapiens) (UniProt Q02763); test: Inhibition of TIE2 (unknown origin) at 100 nM
[9] = molecular target: Receptor tyrosine-protein kinase erbB-2 (Homo sapiens) (UniProt P04626); test: Inhibition of ERBB2 (unknown origin) at 100 nM
[10] = molecular target: G protein-coupled receptor kinase 6 (Homo sapiens) (UniProt P43250); test: Inhibition of GRK6 (unknown origin) at 100 nM
[11] = molecular target: Tyrosine-protein kinase ABL2 (Homo sapiens) (UniProt P42684); test: Inhibition of ARG (unknown origin) at 100 nM
[12] = molecular target: Serine/threonine-protein kinase PAK 1 (Homo sapiens) (UniProt Q13153); test: Inhibition of PAK1 (unknown origin) at 100 nM
[13] = test system: Platelet-derived growth factor receptor alpha (Homo sapiens), P16234 [T674I]; test: Inhibition of PDGFRalpha T674I mutant (unknown origin) at 100 nM
[14] = molecular target: Discoidin domain-containing receptor 2 (Homo sapiens) (UniProt Q16832); test: Inhibition of DDR2 (unknown origin) at 100 nM
[15] = molecular target: MAP kinase-activated protein kinase 5 (Homo sapiens) (UniProt Q8IW41); test: Inhibition of PRAK (unknown origin) at 100 nM
[16] = molecular target: Mitogen-activated protein kinase kinase kinase 3 (Homo sapiens) (UniProt Q99759); test: Inhibition of MEKK3 (unknown origin) at 100 nM
[17] = molecular target: Calcium/calmodulin-dependent protein kinase kinase 2 (Homo sapiens) (UniProt Q96RR4); test: Inhibition of CAMKK2 (unknown origin) at 100 nM
[18] = molecular target: Sphingosine kinase 2 (Homo sapiens) (UniProt Q9NRA0); test: Inhibition of SPHK2 (unknown origin) at 100 nM
[19] = molecular target: 3-phosphoinositide-dependent protein kinase 1 (Homo sapiens) (UniProt O15530); test: Inhibition of PDK1 (unknown origin) at 100 nM
[20] = molecular target: Vascular endothelial growth factor receptor 3 (Homo sapiens) (UniProt P35916); test: Inhibition of FLT4 (unknown origin) at 100 nM
[21] = molecular target: Ephrin type-B receptor 1 (Homo sapiens) (UniProt P54762); test: Inhibition of EPHB1 (unknown origin) at 100 nM
[22] = molecular target: Ephrin type-A receptor 4 (Homo sapiens) (UniProt P54764); test: Inhibition of EPHA4 (unknown origin) at 100 nM
[23] = molecular target: Ribosomal protein S6 kinase alpha-3 (Homo sapiens) (UniProt P51812); test: Inhibition of RSK2 (unknown origin) at 100 nM
[24] = molecular target: Serine/threonine-protein kinase NLK (Homo sapiens) (UniProt Q9UBE8); test: Inhibition of NLK (unknown origin) at 100 nM
[25] = molecular target: Ephrin type-B receptor 3 (Homo sapiens) (UniProt P54753); test: Inhibition of EPHB3 (unknown origin) at 100 nM
[26] = test system: Receptor-type tyrosine-protein kinase FLT3 (Homo sapiens), P36888 [D835Y]; test: Inhibition of FLT3 D835Y mutant (unknown origin) at 100 nM
[27] = molecular target: Dual specificity protein kinase CLK1 (Homo sapiens) (UniProt P49759); test: Inhibition of CLK1 (unknown origin) at 100 nM
[28] = molecular target: Serine/threonine-protein kinase Nek2 (Homo sapiens) (UniProt P51955); test: Inhibition of NEK2 (unknown origin) at 100 nM
[29] = molecular target: Fibroblast growth factor receptor 3 (Homo sapiens) (UniProt P22607); test: Inhibition of FGFR3 (unknown origin) at 100 nM
[30] = molecular target: Protein kinase C epsilon type (Homo sapiens) (UniProt Q02156); test: Inhibition of PKCepsilon (unknown origin) at 100 nM
[31] = molecular target: Calcium/calmodulin-dependent protein kinase kinase 1 (Homo sapiens) (UniProt Q8N5S9); test: Inhibition of CaMKK1 (unknown origin) at 100 nM
[32] = molecular target: Tyrosine-protein kinase Tec (Homo sapiens) (UniProt P42680); test: Inhibition of TEC (unknown origin) at 100 nM
[33] = molecular target: Myotonin-protein kinase (Homo sapiens) (UniProt Q09013); test: Inhibition of DMPK (unknown origin) at 100 nM
[34] = molecular target: Ribosomal protein S6 kinase alpha-6 (Homo sapiens) (UniProt Q9UK32); test: Inhibition of RSK4 (unknown origin) at 100 nM
[35] = molecular target: Serine/threonine-protein kinase Chk2 (Homo sapiens) (UniProt O96017); test: Inhibition of CHK2 (unknown origin) at 100 nM
[36] = molecular target: Ribosomal protein S6 kinase alpha-2 (Homo sapiens) (UniProt Q15349); test: Inhibition of RSK3 (unknown origin) at 100 nM
[37] = molecular target: MAP kinase-interacting serine/threonine-protein kinase 1 (Homo sapiens) (UniProt Q9BUB5); test: Inhibition of MKNK1 (unknown origin) at 100 nM
[38] = molecular target: Leukocyte tyrosine kinase receptor (Homo sapiens) (UniProt P29376); test: Inhibition of LTK (unknown origin) at 100 nM
[39] = molecular target: Serine/threonine-protein kinase PLK3 (Homo sapiens) (UniProt Q9H4B4); test: Inhibition of PLK3 (unknown origin) at 100 nM
[40] = molecular target: Mitogen-activated protein kinase 9 (Homo sapiens) (UniProt P45984); test: Inhibition of JNK2 (unknown origin) at 100 nM
[41] = molecular target: Tyrosine-protein kinase TXK (Homo sapiens) (UniProt P42681); test: Inhibition of TXK (unknown origin) at 100 nM
[42] = molecular target: Serine/threonine-protein kinase Sgk3 (Homo sapiens) (UniProt Q96BR1); test: Inhibition of SGK3 (unknown origin) at 100 nM
[43] = molecular target: Misshapen-like kinase 1 (Homo sapiens) (UniProt Q8N4C8); test: Inhibition of MINK1 (unknown origin) at 100 nM
Hepatocyte = test: Drug metabolism in human hepatocytes assessed as glucuronidation; type: ADME, cell-based

Calcium/calmodulin-dependent protein kinase kinase 1 (Homo sapiens), sequence (Q8N5S9 whole entry, looked up): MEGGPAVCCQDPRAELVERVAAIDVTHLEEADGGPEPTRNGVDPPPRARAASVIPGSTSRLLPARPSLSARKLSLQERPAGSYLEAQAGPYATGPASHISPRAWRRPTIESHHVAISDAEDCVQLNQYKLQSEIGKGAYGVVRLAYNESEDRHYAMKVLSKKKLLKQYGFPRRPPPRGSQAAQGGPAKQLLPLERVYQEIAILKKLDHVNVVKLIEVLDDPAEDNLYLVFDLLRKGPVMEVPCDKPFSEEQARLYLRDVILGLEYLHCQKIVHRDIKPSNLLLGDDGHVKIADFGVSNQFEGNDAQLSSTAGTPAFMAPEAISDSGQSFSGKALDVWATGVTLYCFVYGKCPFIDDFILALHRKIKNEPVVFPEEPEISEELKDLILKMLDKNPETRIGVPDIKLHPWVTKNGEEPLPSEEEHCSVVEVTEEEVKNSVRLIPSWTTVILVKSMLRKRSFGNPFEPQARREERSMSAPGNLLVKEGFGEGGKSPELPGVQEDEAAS
Tyrosine-protein kinase ABL2 (Homo sapiens), sequence (P42684 whole entry): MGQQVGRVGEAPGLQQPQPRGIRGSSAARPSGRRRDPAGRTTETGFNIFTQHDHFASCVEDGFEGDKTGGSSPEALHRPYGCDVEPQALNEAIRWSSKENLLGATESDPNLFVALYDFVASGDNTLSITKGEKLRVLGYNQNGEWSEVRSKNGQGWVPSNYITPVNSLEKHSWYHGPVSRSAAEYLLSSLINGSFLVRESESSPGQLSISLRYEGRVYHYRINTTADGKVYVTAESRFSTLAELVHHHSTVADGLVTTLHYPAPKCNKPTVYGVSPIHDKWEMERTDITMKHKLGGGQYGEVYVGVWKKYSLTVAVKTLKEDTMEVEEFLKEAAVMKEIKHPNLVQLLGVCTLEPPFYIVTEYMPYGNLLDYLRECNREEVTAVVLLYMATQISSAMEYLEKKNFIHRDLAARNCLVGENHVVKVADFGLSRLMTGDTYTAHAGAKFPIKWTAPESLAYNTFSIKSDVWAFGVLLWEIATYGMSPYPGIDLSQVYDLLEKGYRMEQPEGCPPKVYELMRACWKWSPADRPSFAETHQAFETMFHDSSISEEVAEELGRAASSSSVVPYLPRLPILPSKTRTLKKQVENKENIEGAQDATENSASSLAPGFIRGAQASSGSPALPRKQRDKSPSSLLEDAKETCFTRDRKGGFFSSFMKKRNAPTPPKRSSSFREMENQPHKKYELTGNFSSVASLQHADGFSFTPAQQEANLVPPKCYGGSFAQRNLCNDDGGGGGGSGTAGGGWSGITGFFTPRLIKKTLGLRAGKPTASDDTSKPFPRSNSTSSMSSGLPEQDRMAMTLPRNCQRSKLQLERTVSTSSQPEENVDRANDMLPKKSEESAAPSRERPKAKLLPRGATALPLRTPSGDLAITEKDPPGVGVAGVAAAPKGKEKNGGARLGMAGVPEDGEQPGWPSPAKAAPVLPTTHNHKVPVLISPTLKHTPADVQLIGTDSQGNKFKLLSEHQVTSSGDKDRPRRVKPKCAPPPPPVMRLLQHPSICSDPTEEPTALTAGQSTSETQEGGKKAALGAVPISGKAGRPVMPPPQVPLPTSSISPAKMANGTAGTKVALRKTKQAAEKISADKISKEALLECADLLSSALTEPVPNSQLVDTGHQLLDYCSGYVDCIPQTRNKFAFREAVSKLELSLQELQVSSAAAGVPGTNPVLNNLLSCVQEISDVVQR
Discoidin domain-containing receptor 2 (Homo sapiens), sequence (Q16832 whole entry, the tested form may be a part): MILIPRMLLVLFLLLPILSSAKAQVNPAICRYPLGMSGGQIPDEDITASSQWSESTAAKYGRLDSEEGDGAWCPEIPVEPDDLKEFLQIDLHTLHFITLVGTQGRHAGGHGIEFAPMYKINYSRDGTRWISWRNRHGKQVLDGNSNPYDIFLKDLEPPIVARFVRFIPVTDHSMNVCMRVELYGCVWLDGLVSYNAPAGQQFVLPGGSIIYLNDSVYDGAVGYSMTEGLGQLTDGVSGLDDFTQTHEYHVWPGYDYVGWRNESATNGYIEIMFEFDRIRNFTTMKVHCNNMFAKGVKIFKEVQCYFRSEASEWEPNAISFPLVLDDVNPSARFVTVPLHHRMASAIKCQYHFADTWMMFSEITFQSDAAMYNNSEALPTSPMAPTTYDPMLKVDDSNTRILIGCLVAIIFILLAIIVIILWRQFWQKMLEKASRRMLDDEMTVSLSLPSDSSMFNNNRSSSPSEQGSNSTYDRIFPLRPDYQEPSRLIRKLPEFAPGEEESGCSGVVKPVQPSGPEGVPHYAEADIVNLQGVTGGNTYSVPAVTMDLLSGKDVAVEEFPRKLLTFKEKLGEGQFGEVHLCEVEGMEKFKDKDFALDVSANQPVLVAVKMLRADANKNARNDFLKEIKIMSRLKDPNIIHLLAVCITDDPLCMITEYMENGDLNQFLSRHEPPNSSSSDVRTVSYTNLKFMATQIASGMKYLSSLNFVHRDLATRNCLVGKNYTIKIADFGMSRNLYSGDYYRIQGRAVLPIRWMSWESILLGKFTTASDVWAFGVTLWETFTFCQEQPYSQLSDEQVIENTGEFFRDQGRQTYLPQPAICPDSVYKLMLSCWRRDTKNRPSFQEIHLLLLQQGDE
Megakaryocyte-associated tyrosine-protein kinase (Homo sapiens), sequence (P42679 whole entry): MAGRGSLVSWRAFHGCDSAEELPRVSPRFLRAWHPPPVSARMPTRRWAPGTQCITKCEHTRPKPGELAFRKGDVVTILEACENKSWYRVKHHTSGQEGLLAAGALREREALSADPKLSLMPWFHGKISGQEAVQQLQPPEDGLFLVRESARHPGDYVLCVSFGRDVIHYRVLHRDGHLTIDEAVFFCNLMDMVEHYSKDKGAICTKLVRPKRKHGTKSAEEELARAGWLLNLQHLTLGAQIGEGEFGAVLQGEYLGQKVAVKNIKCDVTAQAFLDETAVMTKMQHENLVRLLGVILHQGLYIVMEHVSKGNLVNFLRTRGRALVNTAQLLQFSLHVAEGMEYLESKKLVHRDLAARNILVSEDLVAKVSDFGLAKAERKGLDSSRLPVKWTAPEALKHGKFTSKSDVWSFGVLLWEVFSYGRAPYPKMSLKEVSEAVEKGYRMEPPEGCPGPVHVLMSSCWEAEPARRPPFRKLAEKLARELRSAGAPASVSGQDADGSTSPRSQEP
Serine/threonine-protein kinase PAK 1 (Homo sapiens), sequence (Q13153 whole entry): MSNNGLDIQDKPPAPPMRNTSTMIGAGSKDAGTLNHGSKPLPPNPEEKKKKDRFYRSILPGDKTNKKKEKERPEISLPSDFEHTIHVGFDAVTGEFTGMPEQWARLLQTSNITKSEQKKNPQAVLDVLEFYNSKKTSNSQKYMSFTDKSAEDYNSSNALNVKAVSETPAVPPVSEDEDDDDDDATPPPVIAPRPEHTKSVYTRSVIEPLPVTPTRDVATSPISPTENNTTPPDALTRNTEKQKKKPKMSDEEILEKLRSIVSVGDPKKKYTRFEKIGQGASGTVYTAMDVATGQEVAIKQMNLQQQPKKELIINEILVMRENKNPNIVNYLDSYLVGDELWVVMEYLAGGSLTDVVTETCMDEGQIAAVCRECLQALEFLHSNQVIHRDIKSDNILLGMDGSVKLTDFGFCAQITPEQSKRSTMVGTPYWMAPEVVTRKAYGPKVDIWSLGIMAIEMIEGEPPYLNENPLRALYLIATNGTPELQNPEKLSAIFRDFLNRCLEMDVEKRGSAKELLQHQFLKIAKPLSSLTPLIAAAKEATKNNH
Ribosomal protein S6 kinase alpha-6 (Homo sapiens), sequence (Q9UK32 whole entry): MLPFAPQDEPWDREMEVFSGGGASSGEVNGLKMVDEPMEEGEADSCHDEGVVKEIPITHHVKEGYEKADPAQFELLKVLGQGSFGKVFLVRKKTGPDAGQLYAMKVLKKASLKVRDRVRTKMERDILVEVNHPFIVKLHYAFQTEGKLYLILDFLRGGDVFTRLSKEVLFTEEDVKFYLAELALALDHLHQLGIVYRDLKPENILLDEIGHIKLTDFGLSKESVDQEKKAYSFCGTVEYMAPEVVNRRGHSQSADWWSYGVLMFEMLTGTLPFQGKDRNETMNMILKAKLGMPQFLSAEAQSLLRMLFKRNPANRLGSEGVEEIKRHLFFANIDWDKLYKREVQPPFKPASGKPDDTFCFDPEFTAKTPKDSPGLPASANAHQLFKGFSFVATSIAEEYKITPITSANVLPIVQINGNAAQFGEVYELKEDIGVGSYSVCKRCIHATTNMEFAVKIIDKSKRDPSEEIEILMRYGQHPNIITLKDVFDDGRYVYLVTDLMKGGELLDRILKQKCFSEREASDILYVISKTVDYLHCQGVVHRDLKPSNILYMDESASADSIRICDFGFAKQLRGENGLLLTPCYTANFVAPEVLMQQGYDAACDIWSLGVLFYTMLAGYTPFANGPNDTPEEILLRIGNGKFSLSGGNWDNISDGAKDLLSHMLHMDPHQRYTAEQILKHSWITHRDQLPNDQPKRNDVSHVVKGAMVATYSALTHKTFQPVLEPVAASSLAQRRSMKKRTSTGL
Myotonin-protein kinase (Homo sapiens), sequence (Q09013 whole entry): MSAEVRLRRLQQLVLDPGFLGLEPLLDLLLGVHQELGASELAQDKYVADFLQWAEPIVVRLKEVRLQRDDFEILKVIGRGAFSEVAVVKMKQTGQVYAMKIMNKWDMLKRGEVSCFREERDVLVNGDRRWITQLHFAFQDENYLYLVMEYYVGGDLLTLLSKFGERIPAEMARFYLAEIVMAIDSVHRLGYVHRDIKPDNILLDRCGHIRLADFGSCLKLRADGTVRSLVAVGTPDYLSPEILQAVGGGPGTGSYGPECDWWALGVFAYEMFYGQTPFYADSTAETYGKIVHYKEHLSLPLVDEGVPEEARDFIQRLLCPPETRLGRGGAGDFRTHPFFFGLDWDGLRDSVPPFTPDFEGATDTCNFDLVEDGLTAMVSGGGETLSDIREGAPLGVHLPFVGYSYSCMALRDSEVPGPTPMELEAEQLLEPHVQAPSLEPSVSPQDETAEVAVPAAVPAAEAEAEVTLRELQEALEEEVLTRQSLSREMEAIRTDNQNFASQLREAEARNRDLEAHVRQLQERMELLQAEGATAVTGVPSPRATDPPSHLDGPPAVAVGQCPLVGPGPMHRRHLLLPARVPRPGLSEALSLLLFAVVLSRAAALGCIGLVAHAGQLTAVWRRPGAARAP

`CC1(C)OCc2c(Nc3n[nH]c4ccccc34)nc(-c3cn[nH]c3)nc21` showed an inhibition [1] of 5.8%, an inhibition [2] of -2.6% and an inhibition [3] of -3.6%. The inhibition [4] was 77.3%, the inhibition [5] was 13.3% and the inhibition [6] was 8.6%. It also gave an inhibition [7] of 0.8%, an inhibition [8] of -0.1% and an inhibition [9] of 57.2%. The inhibition [10] was 1.6%, the inhibition [11] was 69.5% and the inhibition [12] was -4.1%. The inhibition [13] was 9.5%, the inhibition [14] was 23.4% and the inhibition [15] was 5.7%. The inhibition [16] was 49.3%, the inhibition [17] was 1.8% and the inhibition [18] was -9.8%. For the same compound, the inhibition [19] was 3.4%, the inhibition [20] was 95.8% and the inhibition [21] was 22%. The inhibition [22] was 23.1%, the inhibition [23] was -5.9% and the inhibition [24] was -0.6%. The inhibition [25] was 20.1%, the inhibition [26] was 24.8% and the inhibition [27] was 7.3%. The inhibition [28] was 7.7%, the inhibition [29] was 18.4% and the inhibition [30] was 4.9%. For the same compound, the inhibition [31] was 7%, the inhibition [32] was 0.1% and the inhibition [33] was 3.3%. The inhibition [34] was 9.8%, the inhibition [35] was -1.3% and the inhibition [36] was 7.4%. For the same compound, the inhibition [37] was 2.3%, the inhibition [38] was 32% and the inhibition [39] was -5.4%. For the same compound, the inhibition [40] was 44.8%, the inhibition [41] was 61.5% and the inhibition [42] was 3.1%. For the same compound, the inhibition [43] was 12.9%.
For `CC1(C)OCc2c(Nc3n[nH]c4c(Cl)cccc34)nc(-c3cn[nH]c3)nc21`, the Drug metabolism (Hepatocyte) was “metabolite_detected”.
